# From ChEMBL document CHEMBL2074320, “Polyspecific organic anion transporting polypeptides mediate hepatic uptake of amphipathic type II organic cations” (J Pharmacol Exp Ther, 1999)
# Legend:
# [1] = molecular target: T1, Solute carrier organic anion transporter family member 1A2 (Homo sapiens, UniProt P46721); assay: (§1) TP_TRANSPORTER: uptake in Xenopus laevis oocytes; format: functional, cell-based, Oocyte; settings: oocyte
# T1 sequence (P46721 whole entry): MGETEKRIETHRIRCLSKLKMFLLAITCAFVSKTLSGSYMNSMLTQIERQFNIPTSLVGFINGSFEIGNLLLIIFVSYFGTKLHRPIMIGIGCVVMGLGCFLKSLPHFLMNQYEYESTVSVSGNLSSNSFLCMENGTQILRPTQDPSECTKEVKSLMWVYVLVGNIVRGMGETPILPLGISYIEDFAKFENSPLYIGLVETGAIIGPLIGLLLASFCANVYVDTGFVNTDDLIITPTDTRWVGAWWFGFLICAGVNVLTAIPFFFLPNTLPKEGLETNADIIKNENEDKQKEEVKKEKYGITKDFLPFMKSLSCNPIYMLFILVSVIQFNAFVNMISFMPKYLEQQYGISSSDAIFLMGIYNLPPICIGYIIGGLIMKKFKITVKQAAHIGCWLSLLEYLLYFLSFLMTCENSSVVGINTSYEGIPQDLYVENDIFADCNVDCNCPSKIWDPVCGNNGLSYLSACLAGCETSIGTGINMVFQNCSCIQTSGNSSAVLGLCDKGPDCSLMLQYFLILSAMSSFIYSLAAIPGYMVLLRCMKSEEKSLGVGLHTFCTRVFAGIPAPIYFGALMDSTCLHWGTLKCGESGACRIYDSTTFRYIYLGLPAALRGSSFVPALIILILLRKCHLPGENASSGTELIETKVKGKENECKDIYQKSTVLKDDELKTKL
# [2] = molecular target: T2, Solute carrier organic anion transporter family member 1A4 (Rattus norvegicus, UniProt O35913); assay: as §1; format: functional, cell-based; settings: oocyte
# T2 sequence (O35913 whole entry): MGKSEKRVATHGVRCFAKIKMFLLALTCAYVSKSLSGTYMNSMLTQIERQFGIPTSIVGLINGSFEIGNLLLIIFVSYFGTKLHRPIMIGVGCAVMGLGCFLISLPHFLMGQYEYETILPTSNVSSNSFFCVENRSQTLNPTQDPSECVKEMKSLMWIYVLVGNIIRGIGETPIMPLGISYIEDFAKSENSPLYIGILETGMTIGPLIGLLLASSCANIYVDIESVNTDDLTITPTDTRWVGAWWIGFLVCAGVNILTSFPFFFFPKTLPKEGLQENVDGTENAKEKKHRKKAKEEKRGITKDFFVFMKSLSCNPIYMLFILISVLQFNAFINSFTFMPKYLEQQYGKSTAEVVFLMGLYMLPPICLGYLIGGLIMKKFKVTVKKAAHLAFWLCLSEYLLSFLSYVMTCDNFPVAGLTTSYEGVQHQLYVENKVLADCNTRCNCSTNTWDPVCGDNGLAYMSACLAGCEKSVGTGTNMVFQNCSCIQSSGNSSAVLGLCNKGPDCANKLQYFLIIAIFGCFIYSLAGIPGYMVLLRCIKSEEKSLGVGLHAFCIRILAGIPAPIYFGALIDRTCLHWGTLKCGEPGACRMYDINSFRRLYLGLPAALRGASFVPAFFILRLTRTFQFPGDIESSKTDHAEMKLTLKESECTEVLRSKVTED
# [3] = molecular target: T3, Solute carrier organic anion transporter family member 1A1 (Rattus norvegicus, UniProt P46720); assay: as §1; format: functional, cell-based; settings: oocyte
# T3 sequence (P46720 whole entry): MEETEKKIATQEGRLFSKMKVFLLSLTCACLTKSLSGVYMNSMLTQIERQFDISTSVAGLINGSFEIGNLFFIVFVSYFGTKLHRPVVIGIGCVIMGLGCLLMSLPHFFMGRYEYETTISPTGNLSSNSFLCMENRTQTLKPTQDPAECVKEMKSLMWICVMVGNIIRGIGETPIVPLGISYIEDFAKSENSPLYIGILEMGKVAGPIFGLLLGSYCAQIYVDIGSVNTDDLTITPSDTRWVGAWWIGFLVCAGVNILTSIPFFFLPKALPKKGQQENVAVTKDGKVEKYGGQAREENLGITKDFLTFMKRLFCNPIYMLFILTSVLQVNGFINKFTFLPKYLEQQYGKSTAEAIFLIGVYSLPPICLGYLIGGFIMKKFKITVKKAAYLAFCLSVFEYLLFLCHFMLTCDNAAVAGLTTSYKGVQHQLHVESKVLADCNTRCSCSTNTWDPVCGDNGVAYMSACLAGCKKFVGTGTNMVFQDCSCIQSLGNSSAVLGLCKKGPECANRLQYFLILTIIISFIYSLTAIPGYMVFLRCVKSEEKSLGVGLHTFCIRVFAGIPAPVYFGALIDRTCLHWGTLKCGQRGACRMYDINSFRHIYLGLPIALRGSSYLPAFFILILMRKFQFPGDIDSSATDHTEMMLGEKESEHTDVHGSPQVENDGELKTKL
# [4] = molecular target: T4, Solute carrier organic anion transporter family member 1A2 (OATP1A2) (Homo sapiens, UniProt P46721); assay: as §1; format: functional, cell-based, Oocyte; settings: Xenopus laevis oocytes expressing the transporter
# T4 sequence (P46721 whole entry): T1 sequence (P46721 whole entry)
SMILES,Activity [1],Activity [2],Activity [3],Km [4] [µM]
CCC1C[N+]2(CCCC3(C)N=N3)C3CC45c6ccccc6N(C)C4C2CC1C3C5O (configuration not stated),substrate [+],substrate [+],substrate [+],
C=C[C@H]1C[N+]2(C)CC[C@H]1C[C@H]2[C@H](O)c1ccnc2ccc(OC)cc12,,is not a substrate [-],substrate [+],5.1
C=C[C@H]1C[N+]2(C)CC[C@H]1C[C@@H]2[C@@H](O)c1ccnc2ccc(OC)cc12,,is not a substrate [-],is not a substrate [-],25.6
C=CC[N+]1([C@H]2C[C@H]3[C@@H]4CC[C@H]5C[C@H](O)[C@@H](N6CCOCC6)C[C@]5(C)[C@H]4CC[C@]3(C)[C@H]2OC(C)=O)CCCC1 [ROCURONIUM],substrate [+],substrate [+],substrate [+],
